Laboratory results reported in the NIST ThermoML archive (doi:10.1016/j.jct.2016.09.010).

Legend:
[1] = xn = mol fraction of the nth substance listed; conditions: 100 kPa, Liquid; for speed of sound: Frequency=2 MHz, Linear variable-path acoustic interferometer; for mass density: Vibrating tube method
[2] = 100 kPa, Liquid; for speed of sound: Frequency=2 MHz, Linear variable-path acoustic interferometer; for mass density: Vibrating tube method

Nc1ccccc1 [aniline] + CCOC(=O)C(C)O
[1], x2 = 0
Conditions | mass density [kg/m3] | speed of sound [m/s]
303.15 K | 1012.81 | 1614
308.15 K | 1008.91 | 1595
313.15 K | 1004.59 | 1574.4
318.15 K | 1000.21 | 1554.9

Nc1ccccc1 [aniline]
[2]
Conditions | mass density [kg/m3] | speed of sound [m/s]
303.15 K | 1012.81 | 1614
308.15 K | 1008.91 | 1595
313.15 K | 1004.59 | 1574.4
318.15 K | 1000.21 | 1554.9

CNc1ccccc1 [N-methylaniline]
[2]
Conditions | mass density [kg/m3] | speed of sound [m/s]
303.15 K | 978.2 | 1547
308.15 K | 973.53 | 1526.9
313.15 K | 969.92 | 1511
318.15 K | 964.9 | 1491.4

CCOC(=O)C(C)O (stereo not drawn) [DL-ethyl lactate] + CNc1ccccc1
[1], x1 = 1
Conditions | mass density [kg/m3] | speed of sound [m/s]
303.15 K | 1022.88 | 1261.1
308.15 K | 1017.39 | 1243.8
313.15 K | 1011.83 | 1224.8
318.15 K | 1006.31 | 1206.9

CCOC(=O)C(C)O (stereo not drawn) [DL-ethyl lactate] + CCNc1ccccc1
[1], x1 = 1
Conditions | mass density [kg/m3] | speed of sound [m/s]
303.15 K | 1022.88 | 1261.1
308.15 K | 1017.39 | 1243.8
313.15 K | 1011.83 | 1224.8
318.15 K | 1006.31 | 1206.9

CCNc1ccccc1 [N-ethylaminobenzene]
[2]
Conditions | mass density [kg/m3] | speed of sound [m/s]
303.15 K | 952.41 | 1497
308.15 K | 947.69 | 1481
313.15 K | 942.95 | 1464
318.15 K | 938.23 | 1448
